# Results: ChEMBL document CHEMBL2380230, “Potency switch between CHK1 and MK2: discovery of imidazo[1,2-a]pyrazine- and imidazo[1,2-c]pyrimidine-based kinase inhibitors” (Bioorg Med Chem Lett, 2013)
# Legend:
# [1] = biological target: T1, MAP kinase-activated protein kinase 2 (Homo sapiens, UniProt P49137); test: Inhibition of human recombinant MK2
# Target sequence in this assay (P49137 whole entry): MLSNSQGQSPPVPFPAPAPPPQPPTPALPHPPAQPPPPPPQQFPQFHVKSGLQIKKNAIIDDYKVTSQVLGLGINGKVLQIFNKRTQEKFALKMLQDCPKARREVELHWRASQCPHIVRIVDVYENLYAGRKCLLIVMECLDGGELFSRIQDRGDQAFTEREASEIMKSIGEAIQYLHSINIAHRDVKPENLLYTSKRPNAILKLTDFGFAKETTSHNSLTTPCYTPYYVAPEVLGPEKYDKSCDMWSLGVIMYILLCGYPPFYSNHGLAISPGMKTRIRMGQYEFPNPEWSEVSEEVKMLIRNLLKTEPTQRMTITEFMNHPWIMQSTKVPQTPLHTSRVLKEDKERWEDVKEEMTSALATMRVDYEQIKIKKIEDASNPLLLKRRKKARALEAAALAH
# [2] = biological target: T2, Serine/threonine-protein kinase Chk1 (Homo sapiens, UniProt O14757); test: Inhibition of CHK1 (unknown origin)
# T2 sequence (O14757 whole entry): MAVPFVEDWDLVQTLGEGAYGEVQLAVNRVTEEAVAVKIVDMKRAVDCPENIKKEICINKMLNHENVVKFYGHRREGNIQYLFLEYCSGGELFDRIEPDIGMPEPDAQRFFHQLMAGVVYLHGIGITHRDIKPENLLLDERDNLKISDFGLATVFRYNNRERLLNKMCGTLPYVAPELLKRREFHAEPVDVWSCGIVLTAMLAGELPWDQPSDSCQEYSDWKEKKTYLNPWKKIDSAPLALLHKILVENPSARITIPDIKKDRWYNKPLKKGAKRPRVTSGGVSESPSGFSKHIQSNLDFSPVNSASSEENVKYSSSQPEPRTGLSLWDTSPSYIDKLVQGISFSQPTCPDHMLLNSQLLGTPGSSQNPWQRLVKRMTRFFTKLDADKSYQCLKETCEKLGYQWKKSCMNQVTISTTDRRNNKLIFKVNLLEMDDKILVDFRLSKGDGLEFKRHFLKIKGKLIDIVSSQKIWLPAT
# [3] = biological target: T1, MAP kinase-activated protein kinase 2; test: Inhibition of human recombinant MK2 at 10 uM
# Target sequence in this assay (P49137 whole entry, looked up): as the sequence (P49137 whole entry) above
# [4] = biological target: T3, Inhibitor of nuclear factor kappa-B kinase subunit beta (Homo sapiens, UniProt O14920); test: Inhibition of human IKKB
# T3 sequence (O14920 whole entry): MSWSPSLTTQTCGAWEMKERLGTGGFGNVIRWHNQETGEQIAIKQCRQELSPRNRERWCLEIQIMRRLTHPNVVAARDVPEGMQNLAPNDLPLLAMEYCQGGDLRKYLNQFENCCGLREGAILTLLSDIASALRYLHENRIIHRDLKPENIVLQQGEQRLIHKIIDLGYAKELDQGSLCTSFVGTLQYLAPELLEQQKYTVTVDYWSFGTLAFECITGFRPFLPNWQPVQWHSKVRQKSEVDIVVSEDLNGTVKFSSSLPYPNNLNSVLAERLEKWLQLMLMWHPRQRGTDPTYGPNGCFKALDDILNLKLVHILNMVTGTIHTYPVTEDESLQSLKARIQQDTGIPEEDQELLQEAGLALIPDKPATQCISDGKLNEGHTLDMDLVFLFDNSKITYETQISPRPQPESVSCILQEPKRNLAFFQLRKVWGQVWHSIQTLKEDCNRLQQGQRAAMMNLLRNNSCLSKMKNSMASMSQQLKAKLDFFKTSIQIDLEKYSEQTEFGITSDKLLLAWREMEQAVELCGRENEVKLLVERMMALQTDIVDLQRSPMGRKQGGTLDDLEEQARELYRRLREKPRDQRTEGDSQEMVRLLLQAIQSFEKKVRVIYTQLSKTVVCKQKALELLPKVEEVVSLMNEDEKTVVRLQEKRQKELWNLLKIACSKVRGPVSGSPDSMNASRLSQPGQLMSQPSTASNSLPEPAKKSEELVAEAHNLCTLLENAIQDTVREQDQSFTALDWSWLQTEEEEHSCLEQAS
# [5] = biological target: Casein kinase I isoform delta (Homo sapiens, UniProt P48730); test: Inhibition of human CSNK1D
# [6] = biological target: RAC-alpha serine/threonine-protein kinase (Homo sapiens, UniProt P31749); test: Inhibition of human AKT1
# [7] = biological target: T4, Testis-specific serine/threonine-protein kinase 2 (Homo sapiens, UniProt Q96PF2); test: Inhibition of human TSSK2
# T4 sequence (Q96PF2 whole entry): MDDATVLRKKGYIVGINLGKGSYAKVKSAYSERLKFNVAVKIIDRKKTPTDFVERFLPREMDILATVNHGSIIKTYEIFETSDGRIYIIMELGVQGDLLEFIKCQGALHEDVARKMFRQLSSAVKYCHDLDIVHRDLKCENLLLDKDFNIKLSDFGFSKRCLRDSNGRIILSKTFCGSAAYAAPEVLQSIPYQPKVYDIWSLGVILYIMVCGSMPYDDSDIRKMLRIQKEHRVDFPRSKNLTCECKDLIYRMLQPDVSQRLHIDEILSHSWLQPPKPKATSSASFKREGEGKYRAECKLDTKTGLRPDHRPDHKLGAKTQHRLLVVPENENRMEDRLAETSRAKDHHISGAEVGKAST
# [8] = biological target: Hepatocyte growth factor receptor (Homo sapiens, UniProt P08581); test: Inhibition of human MET
# [9] = biological target: Tyrosine-protein kinase Lck (Homo sapiens, UniProt P06239); test: Inhibition of human LCK
# [10] = biological target: Mitogen-activated protein kinase 1 (Homo sapiens, UniProt P28482); test: Inhibition of human ERK2
# [11] = biological target: Tyrosine-protein kinase JAK2 (Homo sapiens, UniProt O60674); test: Inhibition of human JAK2
# [12] = biological target: Insulin-like growth factor 1 receptor (Homo sapiens, UniProt P08069); test: Inhibition of human IGF1R
# Chain of Casein kinase I isoform delta (P48730 whole entry, canonical isoform): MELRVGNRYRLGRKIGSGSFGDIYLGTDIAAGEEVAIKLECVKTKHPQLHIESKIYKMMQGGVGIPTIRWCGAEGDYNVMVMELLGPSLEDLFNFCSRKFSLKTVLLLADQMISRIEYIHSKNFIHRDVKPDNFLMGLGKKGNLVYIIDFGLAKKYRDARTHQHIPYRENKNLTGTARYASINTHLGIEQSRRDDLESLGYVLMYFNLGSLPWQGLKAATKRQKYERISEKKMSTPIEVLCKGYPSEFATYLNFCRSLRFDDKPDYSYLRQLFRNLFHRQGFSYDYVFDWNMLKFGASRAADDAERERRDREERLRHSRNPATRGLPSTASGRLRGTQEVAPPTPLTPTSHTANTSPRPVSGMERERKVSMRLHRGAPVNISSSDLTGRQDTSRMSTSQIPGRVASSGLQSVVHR
# Chain of Hepatocyte growth factor receptor (P08581 whole entry): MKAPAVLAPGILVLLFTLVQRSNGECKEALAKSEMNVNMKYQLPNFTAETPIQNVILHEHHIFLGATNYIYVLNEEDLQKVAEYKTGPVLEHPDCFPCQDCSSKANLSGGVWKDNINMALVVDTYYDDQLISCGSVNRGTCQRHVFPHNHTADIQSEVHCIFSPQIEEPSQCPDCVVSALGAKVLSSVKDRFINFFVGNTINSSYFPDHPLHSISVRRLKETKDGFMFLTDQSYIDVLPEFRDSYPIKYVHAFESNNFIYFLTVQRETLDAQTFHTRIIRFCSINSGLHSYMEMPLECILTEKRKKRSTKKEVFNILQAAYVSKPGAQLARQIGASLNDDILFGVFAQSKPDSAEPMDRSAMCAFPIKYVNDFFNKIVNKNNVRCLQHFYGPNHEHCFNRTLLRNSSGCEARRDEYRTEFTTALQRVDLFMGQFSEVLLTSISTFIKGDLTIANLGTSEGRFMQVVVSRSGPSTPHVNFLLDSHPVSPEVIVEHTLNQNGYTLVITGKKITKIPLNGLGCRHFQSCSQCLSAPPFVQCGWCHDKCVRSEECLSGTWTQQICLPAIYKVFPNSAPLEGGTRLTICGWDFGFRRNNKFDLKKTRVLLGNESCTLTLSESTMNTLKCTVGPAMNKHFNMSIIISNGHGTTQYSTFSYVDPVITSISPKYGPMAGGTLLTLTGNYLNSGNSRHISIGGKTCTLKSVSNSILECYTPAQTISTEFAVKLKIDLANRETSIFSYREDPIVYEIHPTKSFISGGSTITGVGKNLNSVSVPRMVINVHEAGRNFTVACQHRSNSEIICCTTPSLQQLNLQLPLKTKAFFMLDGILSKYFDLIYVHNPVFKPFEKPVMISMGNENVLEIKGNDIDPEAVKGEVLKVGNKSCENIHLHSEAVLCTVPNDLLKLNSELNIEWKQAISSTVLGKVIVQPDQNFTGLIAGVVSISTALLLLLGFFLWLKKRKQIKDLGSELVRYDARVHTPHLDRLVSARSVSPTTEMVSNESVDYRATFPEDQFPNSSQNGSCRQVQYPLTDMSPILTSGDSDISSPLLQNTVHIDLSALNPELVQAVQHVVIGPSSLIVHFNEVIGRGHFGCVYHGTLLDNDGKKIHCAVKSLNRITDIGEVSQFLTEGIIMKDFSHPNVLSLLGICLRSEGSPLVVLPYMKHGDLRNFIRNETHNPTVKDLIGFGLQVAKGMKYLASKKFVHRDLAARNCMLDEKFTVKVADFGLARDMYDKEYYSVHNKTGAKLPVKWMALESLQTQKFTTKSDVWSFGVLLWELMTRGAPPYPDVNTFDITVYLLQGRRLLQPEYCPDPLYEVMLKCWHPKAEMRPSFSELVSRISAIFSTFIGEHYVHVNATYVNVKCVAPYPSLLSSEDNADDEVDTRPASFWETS
# Chain of Mitogen-activated protein kinase 1 (P28482 whole entry): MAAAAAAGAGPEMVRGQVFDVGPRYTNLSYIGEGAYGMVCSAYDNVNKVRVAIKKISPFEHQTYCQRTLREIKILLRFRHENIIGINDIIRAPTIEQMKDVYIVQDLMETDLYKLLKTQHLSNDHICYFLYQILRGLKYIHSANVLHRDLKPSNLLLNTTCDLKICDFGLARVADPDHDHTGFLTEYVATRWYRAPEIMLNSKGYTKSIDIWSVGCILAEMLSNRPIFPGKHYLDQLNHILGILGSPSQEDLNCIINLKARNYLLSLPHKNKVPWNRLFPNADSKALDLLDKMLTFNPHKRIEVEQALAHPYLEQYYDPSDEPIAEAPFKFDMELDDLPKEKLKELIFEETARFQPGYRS
# Chain of Tyrosine-protein kinase JAK2 (O60674 whole entry): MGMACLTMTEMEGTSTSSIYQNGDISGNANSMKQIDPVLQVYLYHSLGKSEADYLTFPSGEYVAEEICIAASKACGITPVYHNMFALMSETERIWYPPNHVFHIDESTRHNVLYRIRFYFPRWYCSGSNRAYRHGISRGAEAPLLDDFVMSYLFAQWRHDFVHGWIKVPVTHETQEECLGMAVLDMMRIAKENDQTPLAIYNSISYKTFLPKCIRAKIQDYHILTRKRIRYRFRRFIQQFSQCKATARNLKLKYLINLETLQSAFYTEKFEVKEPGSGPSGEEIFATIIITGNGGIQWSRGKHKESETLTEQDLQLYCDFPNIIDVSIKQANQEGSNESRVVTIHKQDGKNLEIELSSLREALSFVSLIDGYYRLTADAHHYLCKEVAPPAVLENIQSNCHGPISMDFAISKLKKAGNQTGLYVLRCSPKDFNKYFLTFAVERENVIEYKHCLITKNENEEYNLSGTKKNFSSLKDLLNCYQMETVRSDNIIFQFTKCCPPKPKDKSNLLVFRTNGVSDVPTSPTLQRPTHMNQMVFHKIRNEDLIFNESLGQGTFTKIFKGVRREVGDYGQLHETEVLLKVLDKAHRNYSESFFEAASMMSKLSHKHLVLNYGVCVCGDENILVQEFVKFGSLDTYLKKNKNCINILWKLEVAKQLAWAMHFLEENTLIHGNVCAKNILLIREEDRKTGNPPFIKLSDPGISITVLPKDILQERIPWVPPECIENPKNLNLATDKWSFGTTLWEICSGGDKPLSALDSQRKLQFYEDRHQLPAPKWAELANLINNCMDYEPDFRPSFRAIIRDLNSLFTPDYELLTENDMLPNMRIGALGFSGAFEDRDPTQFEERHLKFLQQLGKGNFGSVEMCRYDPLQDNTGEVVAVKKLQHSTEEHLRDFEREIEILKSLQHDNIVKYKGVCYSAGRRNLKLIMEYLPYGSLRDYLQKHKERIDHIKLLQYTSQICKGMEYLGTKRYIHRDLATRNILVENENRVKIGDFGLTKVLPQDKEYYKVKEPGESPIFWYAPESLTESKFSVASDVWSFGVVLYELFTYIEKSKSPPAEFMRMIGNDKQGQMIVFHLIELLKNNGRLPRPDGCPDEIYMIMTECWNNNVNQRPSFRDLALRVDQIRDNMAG
# Chain of Tyrosine-protein kinase Lck (P06239 whole entry): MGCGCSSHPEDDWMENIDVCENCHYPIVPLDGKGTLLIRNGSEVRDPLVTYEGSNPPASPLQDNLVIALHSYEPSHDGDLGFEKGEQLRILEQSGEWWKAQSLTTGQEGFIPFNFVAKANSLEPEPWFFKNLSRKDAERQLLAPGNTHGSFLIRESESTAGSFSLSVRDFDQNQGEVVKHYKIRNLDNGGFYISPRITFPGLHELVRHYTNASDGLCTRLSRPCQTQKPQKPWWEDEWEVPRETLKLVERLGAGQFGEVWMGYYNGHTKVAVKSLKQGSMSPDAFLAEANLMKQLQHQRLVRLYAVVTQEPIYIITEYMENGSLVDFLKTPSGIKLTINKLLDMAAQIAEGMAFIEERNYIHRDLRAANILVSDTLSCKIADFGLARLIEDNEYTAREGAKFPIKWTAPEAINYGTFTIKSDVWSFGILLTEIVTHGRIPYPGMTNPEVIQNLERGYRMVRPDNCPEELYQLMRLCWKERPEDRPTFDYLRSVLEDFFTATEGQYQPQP
# Chain of RAC-alpha serine/threonine-protein kinase (P31749 whole entry): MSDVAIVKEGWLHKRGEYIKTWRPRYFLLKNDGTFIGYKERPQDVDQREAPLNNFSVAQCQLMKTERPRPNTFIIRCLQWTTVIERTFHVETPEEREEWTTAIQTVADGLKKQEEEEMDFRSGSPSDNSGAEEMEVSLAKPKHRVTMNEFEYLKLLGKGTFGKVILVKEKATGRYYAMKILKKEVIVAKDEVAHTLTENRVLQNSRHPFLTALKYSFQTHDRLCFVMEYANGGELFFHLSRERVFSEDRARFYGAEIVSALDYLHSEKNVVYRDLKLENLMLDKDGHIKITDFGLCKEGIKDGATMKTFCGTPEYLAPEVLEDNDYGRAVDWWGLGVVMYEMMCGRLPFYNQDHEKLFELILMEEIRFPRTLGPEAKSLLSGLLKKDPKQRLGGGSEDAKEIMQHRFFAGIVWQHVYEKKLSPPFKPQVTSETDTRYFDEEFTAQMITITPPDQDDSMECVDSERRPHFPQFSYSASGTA
SMILES,IC50 [1] [µM],IC50 [2] [µM],further results
CN[C@H]1CC[C@H](Nc2ncc(C(N)=O)n3cc(-c4ccc(Cl)cc4)nc23)CC1,0.4,0.89,
NC(=O)c1cnc(Nc2cccnc2)c2nc(-c3ccc(Cl)cc3)cn12,10,,
NC(=O)c1ncc(N[C@H]2CC[C@H](N)CC2)c2nc(-c3ccc(Cl)cc3)cn12,1.98,,
NC(=O)c1cnc(N[C@H]2CCCNC2)n2cc(-c3ccc(Cl)cc3)nc12,,,inhibition [3]: 67%
NC(=O)c1cnc(N[C@H]2CCCNC2)c2nc(-c3ccc4ccccc4c3)cn12,0.91,0.023,
NCCCNc1ncc(C(N)=O)n2cc(-c3ccc(Cl)cc3)nc12,4.09,0.29,
NC(=O)c1cnc(N[C@H]2CC[C@H](N)CC2)c2nc(-c3ccc(Cl)c(Cl)c3)cn12,0.82,5.07,
NC(=O)c1cnc(N[C@H]2CC[C@@H](N)CC2)c2nc(-c3ccc(Cl)cc3)cn12,1.9,,
NC(=O)c1cnc(N[C@H]2CC[C@H](N)CC2)c2nc(-c3ccc(Cl)cc3)cn12,,,IC50 [4]: > 30 µM; IC50 [5]: 12 µM; IC50 [6]: > 30 µM; IC50 [7]: 12 µM; IC50 [8]: > 30 µM; IC50 [9]: 1 µM; IC50 [10]: > 30 µM; IC50 [11]: 13 µM; IC50 [12]: 12 µM

# Now from value to compound, other results behind:
IC50 [1] [µM],IC50 [2] [µM],SMILES,further results
0.91,0.027,NC(=O)c1cnc(N[C@H]2CCCNC2)c2nc(-c3ccc(F)cc3)cn12,
4.15,0.69,NC(=O)c1cnc(NC2CCNCC2)c2nc(-c3ccc(Cl)cc3)cn12,
0.84,0.018,NC(=O)c1ncc(N[C@H]2CCCNC2)c2nc(-c3ccc(Cl)cc3)cn12,
,50,NC(=O)c1cnc(NCC2CCCNC2)n2cc(-c3ccc(Cl)cc3)nc12 (stereo not given),inhibition [3]: 61%
,50,CN1CCC(Nc2ncc(C(N)=O)c3nc(-c4ccc(Cl)cc4)cn23)CC1,inhibition [3]: 69%
4,50,NC(=O)c1cnc(N[C@H]2CC[C@H](N)CC2)n2cc(-c3ccc(Cl)cc3)nc12,
,42.1,NC(=O)c1cnc(N[C@@H]2CCNC2)n2cc(-c3ccc(Cl)cc3)nc12,inhibition [3]: 56%
